# Results taken from patent US20240207214A1, “FATTY ACID LACTYLATES FOR USE IN TREATING RUMINANT ANIMALS” (FORFARMERS CORPORATE SERVICES B.V., priority 2021, published 2024).
# Legend:
# Type in all cases: in vivo
# Conditions in all cases: diet supplementation, 10 ruminants per group; putative results
# ruminants [1] = experiment: comparison of lactylates: effect on fecal consistency score
# Procedure: (§1) Two experiments were carried out to evaluate the efficacy of lactylate in stimulating intestinal absorptive capacity and improving fecal consistency, dry matter content and scores and milk fat yield. The first experiment was conducted with goats and the second with dairy cows. The focus of the first experiment was the absorptive capacity and fecal consistency and scores, while the 2nd experiment focused on the effect on milk fat yield. In the first experiment, a goat farm was used. The farm had issues with fecal consistency, having at least 30 goats per pen with low fecal consistency. Fecal consistency and scores per pen were recorded 2 times per week from the start of the experiment for a period of 3 months. The goats in the farm were supplemented with lactylates (in this case applied as ALOAPUR® powder as obtained from Purac/Corbion) (added to the compound feed) at the rate of 3.5 to 7 g per goat per day. The 2nd study focused on the effect on milk fat yield and was conducted at a dairy research farm. The herd (120 cows) was divided into 2 groups blocked on days in milk, milk yield and milk fat %. One group was supplemented with 50 g of lactylates per cow per day while the other group served as a control. The ration for both groups was similar and was balanced on energy, protein and minerals and vitamins. The experiment lasted for 9 week. Performance data was collected/recorded on weekly basis. […] Methane emission is determined as described in Example 1; SCC, BC and mastitis effects are determined as described in Example 2. Effect on fecal consistency and effect on milk yield is determined as described in Example 3. The different lactylates are stearoyl lactylate, lauroyl lactylate, myristoyl lactylate, cetyl lactylate, palmitoyl lactylate and oleic lactylate. As control, the same diet without lactylates is supplied.
# ruminants [2] = experiment: comparison of lactylates: effect on SCC, BC and mastitis
# Procedure: Two experiments were carried out to evaluate the efficacy of lactylates in stimulating udder health. The first experiment was conducted with goats and the second with dairy cows. In the first experiment, a goat farm was used. The farm had issues with udder health and had high levels of somatic cell count (SCC) and bacterial counts (BC) in milk delivered. Performance and udder health data were collected every 4 weeks from shortly before starting the experiment for a duration of 3 months. During the experiment all goats on the farm were offered a ration supplemented with lactylates (in this case applied as ALOAPUR® powder as obtained from Purac/Corbion) (added to the compound feed, 3.5 to 7 g per goat per day). During the 3-month study period, every 3 to 4 weeks, data on performance and udder health was collected. The 2nd study was conducted on 7 dairy farms. […] Lactylates were supplemented to the ration of the cows on those farms via the compound feed (25 to 40 g per cow per day). The study lasted for 3 months. Performance and udder health data were collected at the beginning and every 4 weeks of the study. […] Methane emission is determined as described in Example 1; SCC, BC and mastitis effects are determined as described in Example 2. Effect on fecal consistency and effect on milk yield is determined as described in Example 3. The different lactylates are stearoyl lactylate, lauroyl lactylate, myristoyl lactylate, cetyl lactylate, palmitoyl lactylate and oleic lactylate. As control, the same diet without lactylates is supplied.
# ruminants [3] = experiment: comparison of lactylates: effect on milk fat yield
# Procedure: as §1
# ruminants [4] = experiment: comparison of lactylates: effect on methane emission
# Procedure: The well documented in vitro gas production technique (batch culture) (Soliva et al., Letters in Applied Microbiology 2003, 37, 35-39) was used in this study. The rumen fluid used in this incubation was obtained before the morning feeding from 3 rumen fistulated dairy cows on a basal diet composed of 50% maize silage and 50% wilted grass silage (on DM basis), supplemented with some straw and soybean meal. In addition, a balanced compound feed was fed to fulfill the animals' requirements for milk production. The rumen fluid of the three animals was mixed and used to prepare the inoculum. Incubations were performed in sealed 125-mL flasks, in triplicate. The supplements comprising the lactylates (in this case applied as ALOAPUR® powder as obtained from Purac/Corbion) at the level of 1 mg per ml buffered rumen fluid (see below), as well as the simulated dairy cow ration were added to the incubation flasks. On the day of the incubation, the flasks were sealed and flushed with CO2. To each flask, 25 mL of CO2-saturated bicarbonate/phosphate buffered rumen fluid was added (buffer:rumen fluid 4:1, v:v) before the onset of the in vitro incubations at 39° C. in a shaking incubator (Edmund Bühler Gmbh, Hechingen, Germany). After 24 h incubation period, the flasks were removed from the incubator and put directly in an ice bath to stop the microbial activity. Total gas pressure was measured, and the gas phase was sampled for gas composition analysis. Afterwards, pH was measured, and samples were collected for volatile fatty acids (VFA) analysis and protozoa numbers counting. […] Methane emission is determined as described in Example 1; SCC, BC and mastitis effects are determined as described in Example 2. Effect on fecal consistency and effect on milk yield is determined as described in Example 3. The different lactylates are stearoyl lactylate, lauroyl lactylate, myristoyl lactylate, cetyl lactylate, palmitoyl lactylate and oleic lactylate. As control, the same diet without lactylates is supplied.
Compound,Number of ruminants with low fecal consistency reduced relative to control (ruminants [1]),BC in milk reduced relative to control (ruminants [2]),SCC in milk reduced relative to control (ruminants [2]),incidence of mastitis reduced relative to control (ruminants [2]),Average milk fat yield increased relative to control (ruminants [3]),Methane emission reduction relative to control (ruminants [4])
"CCCCCCCCCCCC(=O)OC(C)C(=O)O (stereo not drawn) [Lauroyl lactylate, lauroyl lactylate]",by >50%,"by >20%,","by >20%,",by >25%,by >10%,by >90%
"CCCCCCCCCCCCCC(=O)OC(C)C(=O)O (stereo not drawn) [Myristoyl lactylate, myristoyl lactylate]",by >50%,"by >20%,","by >20%,",by >25%,by >10%,by >90%
"CCCCCCCC/C=C\CCCCCCCC(=O)OC(C)C(=O)O (stereo not drawn) [Oleic lactylate, oleic lactylate]",by >50%,"by >20%,","by >20%,",by >25%,by >10%,by >90%
"CCCCCCCCCCCCCCCC(=O)OC(C)C(=O)O (stereo not drawn) [Palmitoyl lactylate, palmitoyl lactylate]",by >50%,"by >20%,","by >20%,",by >25%,by >10%,by >90%
cetyl lactylate,by >50%,"by >20%,","by >20%,",by >25%,by >10%,by >90%
